Laboratory results published in patent US20260015350A1, “AZAQUINAZOLINE PAN-KRAS INHIBITORS” (Mirati Therapeutics, Inc., priority 2022, published 2026).

Assays:
[1] = test system: KRas-mediated phosphorylation of ERK in A549 cells; assay: Inhibition of KRas-mediated phosphorylation of ERK (Cisbio HTRF pERK), A549 cells; type: cell-based; conditions: Homo sapiens, HTRF pERK
Summary of the method: (§1)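 6,000 cells/well; cpd 10 uM top, 3-fold x10, 0.8% DMSO final; 3 hr incubation; Min ctrl Trametinib 0.2 uM; lysis 40 min 4° C shaking; d2 + Cryptate Ab mix, 2 hr RT; HTRF read.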

[2] = test system: KRas-mediated phosphorylation of ERK in AsPC-1 cells; assay: Inhibition of KRas-mediated phosphorylation of ERK (Cisbio HTRF pERK), AsPC-1 cells; type: cell-based; conditions: Homo sapiens, ASPC1, AsPC-1 cells; HTRF pERK
Summary of the method: (§2)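 Using 6,000 cells per well, compounds are applied for 3 hrs and cells then lysed at 4° C with shaking for 40 mins. Phospho-ERK is measured by HTRF after 2 hrs of lysate incubation with the d2/Cryptate antibody mixture.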

[3] = test system: KRas-mediated phosphorylation of ERK in PSN1 cells; assay: Inhibition of KRas-mediated phosphorylation of ERK (Cisbio HTRF pERK), PSN1 cells; type: cell-based; conditions: Homo sapiens
Summary of the method: (§3)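 Seeding density was 6,000 cells/well; medium RPMI, 10% FBS. Read-out by homogeneous time-resolved fluorescence (pERK) after 4 hours covered at room temperature.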

[4] = test system: KRas-mediated phosphorylation of ERK in H358 cells; assay: Inhibition of KRas-mediated phosphorylation of ERK (Cisbio HTRF pERK), H358 cells; type: cell-based; conditions: Homo sapiens, NCI-H358, HTRF pERK
Summary of the method: as §2

[5] = test system: KRas-mediated phosphorylation of ERK in H460 cells; assay: Inhibition of KRas-mediated phosphorylation of ERK (Cisbio HTRF pERK), H460 cells; type: cell-based; conditions: Homo sapiens, NCI-H460, HTRF pERK
Summary of the method: as §2

KRas^G12V = biological target: T1, KRas^G12V (Homo sapiens, UniProt P01116, G12V); assay: KRas binding assay (TR-FRET tracer displacement), KRas G12V
T1 construct: Biotinylated KRas (corresponding to amino acids 1-169, produced at Accelegan Inc.); biotin (biotinylated); purchased Accelegan Inc

[6] = test system: KRas-mediated phosphorylation of ERK in MKN1 cells; assay: Inhibition of KRas-mediated phosphorylation of ERK (Cisbio HTRF pERK), MKN1 cells; type: cell-based; conditions: Homo sapiens, MKN-1
Summary of the method: as §3

[7] = test system: KRas-mediated phosphorylation of ERK in H727 cells; assay: Inhibition of KRas-mediated phosphorylation of ERK (Cisbio HTRF pERK), H727 cells; type: cell-based; conditions: Homo sapiens, NCI-H727, H727 cells; HTRF pERK
Summary of the method: as §2

KRas^G12R = biological target: T2, KRas^G12R (Homo sapiens, UniProt P01116, G12R); assay: KRas binding assay (TR-FRET tracer displacement), KRas G12R
T2 construct: Biotinylated KRas (corresponding to amino acids 1-169, produced at Accelegan Inc.); biotin (biotinylated); purchased Accelegan Inc

[8] = test system: KRas-mediated phosphorylation of ERK in HCT116 cells; assay: Inhibition of KRas-mediated phosphorylation of ERK (Cisbio HTRF pERK), HCT116 cells; type: cell-based; conditions: Homo sapiens, HCT-116, HTRF pERK
Summary of the method: as §1

KRas^G12D = biological target: T3, KRas^G12D (Homo sapiens, UniProt P01116, G12D); assay: KRas binding assay (TR-FRET tracer displacement), KRas G12D
T3 construct: Biotinylated KRas (corresponding to amino acids 1-169, produced at Accelegan Inc.); biotin (biotinylated); purchased Accelegan Inc
T3 sequence (P01116 1-169 isoform P01116-2 G12D): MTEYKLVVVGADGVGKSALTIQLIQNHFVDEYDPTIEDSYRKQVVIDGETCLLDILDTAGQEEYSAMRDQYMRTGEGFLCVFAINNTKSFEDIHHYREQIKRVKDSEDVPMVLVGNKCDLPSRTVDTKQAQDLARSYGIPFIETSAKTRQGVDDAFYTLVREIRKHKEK

T2 sequence (P01116 1-169 isoform P01116-2 G12R): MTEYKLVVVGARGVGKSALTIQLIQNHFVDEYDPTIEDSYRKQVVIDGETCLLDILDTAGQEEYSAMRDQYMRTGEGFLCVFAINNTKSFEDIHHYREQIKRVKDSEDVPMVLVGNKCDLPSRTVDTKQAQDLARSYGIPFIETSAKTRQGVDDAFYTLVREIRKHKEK
T1 sequence (P01116 1-169 isoform P01116-2 G12V): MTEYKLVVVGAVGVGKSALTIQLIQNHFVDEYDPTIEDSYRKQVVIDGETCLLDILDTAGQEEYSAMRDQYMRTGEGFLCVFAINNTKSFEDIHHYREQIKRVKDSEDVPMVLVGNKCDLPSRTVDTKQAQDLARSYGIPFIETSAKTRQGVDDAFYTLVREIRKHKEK

| Structure (SMILES) | IC50 [1] | IC50 [2] | IC50 [3] | IC50 [4] | IC50 [5] | IC50 (KRas^G12V) | IC50 [6] | IC50 [7] | IC50 (KRas^G12R) | IC50 [8] | IC50 (KRas^G12D) |
| --- | --- | --- | --- | --- | --- | --- | --- | --- | --- | --- | --- |
| CCc1c(F)ccc2cc(O)cc(-c3ncc4c(N5CC6CCC(C5)C6(F)F)nc(OC[C@@]56CCCN5C[C@H](F)C6)nc4c3F)c12 [Example 869, 4-(4-(8,8-difluoro-3-azabicyclo[3.2.1]octan-3-yl)-8-fluoro-2-(((2R,7aS)-2-fluorotetrahydro-1H-pyrrolizin-7a(5H)-yl)methoxy)pyrido[4,3-d]pyrimidin-7-yl)-5-ethyl-6-fluoronaphthalen-2-ol] | 2760 nM | 3600 nM | > 10000 nM | 922 nM | 271 nM | 116 nM | 290 nM | 4520 nM | 26 nM | 1200 nM | 210 nM |
| CCc1c(F)ccc2cc(O)cc(-c3ncc4c(N5CCC[C@@](C)(O)C5)nc(OC[C@@]56CCCN5[C@H](COCC5CC5)CC6)nc4c3F)c12 [Example 870, (R)-1-(2-(((3S,7aS)-3-((cyclopropylmethoxy)methyl)tetrahydro-1H-pyrrolizin-7a(5H)-yl)methoxy)-7-(8-ethyl-7-fluoro-3-hydroxynaphthalen-1-yl)-8-fluoropyrido[4,3-d]pyrimidin-4-yl)-3-methylpiperidin-3-ol] | 66 nM | 51 nM | 1300 nM | 10 nM | 25 nM | < 2 nM | 18 nM | 98 nM | < 2 nM | 49 nM | < 2 nM |
| CCCCN(CCCC)C(=O)OC[C@@H]1CC[C@@]2(COc3nc(N4CCC[C@@](C)(O)C4)c4cnc(-c5cc(O)cc6ccc(F)c(CC)c56)c(F)c4n3)CCCN12 [Example 873, ((3S,7aR)-7a-(((7-(8-ethyl-7-fluoro-3-hydroxynaphthalen-1-yl)-8-fluoro-4-((R)-3-hydroxy-3-methylpiperidin-1-yl)pyrido[4,3-d]pyrimidin-2-yl)oxy)methyl)hexahydro-1H-pyrrolizin-3-yl)methyl dibutylcarbamate] | 135 nM | 93 nM | > 10000 nM | 149 nM | 194 nM | 7 nM | 198 nM | 408 nM | 12 nM | 325 nM | 7 nM |
| CCCCN(C)C(=O)OC[C@@H]1CC[C@@]2(COc3nc(N4CCC[C@@](C)(O)C4)c4cnc(-c5cc(O)cc6ccc(F)c(CC)c56)c(F)c4n3)CCCN12 [Example 874, ((3S,7aR)-7a-(((7-(8-ethyl-7-fluoro-3-hydroxynaphthalen-1-yl)-8-fluoro-4-((R)-3-hydroxy-3-methylpiperidin-1-yl)pyrido[4,3-d]pyrimidin-2-yl)oxy)methyl)hexahydro-1H-pyrrolizin-3-yl)methyl butyl(methyl)carbamate] | 22 nM | 12 nM | 2070 nM | 16 nM | 21 nM | 2 nM | 22 nM | 81 nM | 3 nM | 48 nM | < 2 nM |
| CCc1c(F)ccc2cc(O)cc(-c3ncc4c(N5CCC[C@@](C)(O)C5)nc(OC[C@]56CCCN5[C@@H](COC)CC6)nc4c3F)c12 [Example 877, (R)-1-(7-(8-ethyl-7-fluoro-3-hydroxynaphthalen-1-yl)-8-fluoro-2-(((3R,7aR)-3-(methoxymethyl)tetrahydro-1H-pyrrolizin-7a(5H)-yl)methoxy)pyrido[4,3-d]pyrimidin-4-yl)-3-methylpiperidin-3-ol] | 92 nM | 79 nM | 2150 nM | 40 nM | 86 nM | 3 nM | 104 nM | 189 nM | 5 nM | 176 nM | 3 nM |
| CCc1c(F)ccc2cc(O)cc(-c3ncc4c(N5CCC[C@@](C)(O)C5)nc(OC[C@@]56CCCN5[C@@H](CF)CC6)nc4c3F)c12 [Example 878, (R)-1-(7-(8-ethyl-7-fluoro-3-hydroxynaphthalen-1-yl)-8-fluoro-2-(((3R,7aS)-3-(fluoromethyl)tetrahydro-1H-pyrrolizin-7a(5H)-yl)methoxy)pyrido[4,3-d]pyrimidin-4-yl)-3-methylpiperidin-3-ol] | 125 nM | 43 nM | 4000 nM | 52 nM | 53 nM | 3 nM | 16 nM | 83 nM | 6 nM | 186 nM | 3 nM |
| CCc1c(F)ccc2cc(O)cc(-c3ncc4c(N5CCC[C@@](C)(O)C5)nc(OC[C@]56CCCN5[C@H](CF)CC6)nc4c3F)c12 [Example 879, (R)-1-(7-(8-ethyl-7-fluoro-3-hydroxynaphthalen-1-yl)-8-fluoro-2-(((3S,7aR)-3-(fluoromethyl)tetrahydro-1H-pyrrolizin-7a(5H)-yl)methoxy)pyrido[4,3-d]pyrimidin-4-yl)-3-methylpiperidin-3-ol] | 30 nM | 12 nM | 889 nM | 14 nM | 25 nM | < 2 nM | 1 nM | 35 nM | 3 nM | 65 nM | 2 nM |
| CCc1c(F)ccc2cc(O)cc(-c3ncc4c(N5CC6CCC(C5)C65OCCO5)nc(OC[C@@]56CCCN5C[C@H](F)C6)nc4c3F)c12 [Example 883, 5-ethyl-6-fluoro-4-(8-fluoro-2-(((2R,7aS)-2-fluorotetrahydro-1H-pyrrolizin-7a(5H)-yl)methoxy)-4-(3-azaspiro[bicyclo[3.2.1]octane-8,2′-[1,3]dioxolan]-3-yl)pyrido[4,3-d]pyrimidin-7-yl)naphthalen-2-ol] | 822 nM | 1170 nM | > 10000 nM | 95 nM | 211 nM | 7 nM | 94 nM | 252 nM | 12 nM | 772 nM | 53 nM |
| CCc1c(F)ccc2cc(O)cc(-c3ncc4c(N5CCC[C@@](C)(O)C5)nc(OC[C@]56CCCN5[C@H](COC)CC6)nc4c3F)c12 [Example 885, (R)-1-(7-(8-ethyl-7-fluoro-3-hydroxynaphthalen-1-yl)-8-fluoro-2-(((3S,7aR)-3-(methoxymethyl)tetrahydro-1H-pyrrolizin-7a(5H)-yl)methoxy)pyrido[4,3-d]pyrimidin-4-yl)-3-methylpiperidin-3-ol] | 30 nM | 14 nM | 1320 nM | 7 nM | 8 nM | < 2 nM | 5 nM | 39 nM | < 2 nM | 16 nM | < 2 nM |
| CCc1c(F)ccc2cc(O)cc(-c3ncc4c(N5CCC[C@@](C)(O)C5)nc(OC[C@@]56CCCN5[C@@H](COC)CC6)nc4c3F)c12 [Example 886, (R)-1-(7-(8-ethyl-7-fluoro-3-hydroxynaphthalen-1-yl)-8-fluoro-2-(((3R,7aS)-3-(methoxymethyl)tetrahydro-1H-pyrrolizin-7a(5H)-yl)methoxy)pyrido[4,3-d]pyrimidin-4-yl)-3-methylpiperidin-3-ol] | 73 nM | 40 nM | 2560 nM | 18 nM | 27 nM | 2 nM | 22 nM | 135 nM | 4 nM | 59 nM | 2 nM |
| CCc1c(F)ccc2cc(O)cc(-c3ncc4c(N5CC6CCC(C(=O)NC)(C6)C5)nc(OC[C@@]56CCCN5C[C@H](F)C6)nc4c3F)c12 (stereo partly drawn) [Example 889, 3-(7-(8-ethyl-7-fluoro-3-hydroxynaphthalen-1-yl)-8-fluoro-2-(((2R,7aS)-2-fluorotetrahydro-1H-pyrrolizin-7a(5H)-yl)methoxy)pyrido[4,3-d]pyrimidin-4-yl)-N-methyl-3-azabicyclo[3.2.1]octane-1-carboxamide] | 365 nM | 600 nM | > 10000 nM | 24 nM | 134 nM | < 2 nM | 55 nM | 129 nM | 5 nM | 188 nM | 4 nM |
